Experimental data published in patent US10925884B2, “Methods of diagnosing and treating hepatocellular carcinoma” (MacKay Memorial Hospital, priority 2017, dated 2021).

Key:
Hep3B cells [1] = assay: Colony forming assay, Hep3B cells; assay type: cell-based, Human; conditions: various dosage of trilostane, 10 to 13 days, FIG. 2B
Method: (§1) Human HCC cancer cell lines (including Mahlavu, Hep3B, and Huh7) were cultured in Dulbecco's modified Eagle medium (DMEM), supplemented with 10% (v/v) fetal bovine serum and antibiotics (100 units/mL penicillin, 100 μg/mL streptomycin, and 2.5 μg/mL amphotericin B). All cell lines have been periodically authenticated by short tandem repeat analysis at Bioresource Collection and Research Center, Hsinchu, Taiwan (R.O.C.) and tested for being mycoplasma free. Trilostane was purchased from LKT Laboratories, St. Paul, Minn. A total of 500 Mahlavu or Hep3B HCC cancer cells were seeded into 6-well plate and treated with various dosage of trilostane. The medium was replaced every 3 days. After 10 to 13 days, colonies were stained with 3% crystal violet and examined by microscopy. Colonies containing at least 50 individual cells were counted.

Mahlavu cells [2] = assay: Colony forming assay, Mahlavu cells; assay type: cell-based, Human; conditions: various dosage of trilostane, 10 to 13 days, FIG. 2A
Method: as §1

mahlave cells = assay: Transwell migration assay; assay type: cell-based, Human; conditions: FIG. 2E
[3] = tested on: phosphorylated MEKK1 (p-MEKK1); assay: Western blot analysis of p-MEKK1 in Mahlavu cells; assay type: cell-based, Human; conditions: Mahlavu cells after trilostane treatment, FIG. 3
Method: (§2) Total cellular proteins were extracted, quantified, and subject to gel electrophoresis. Whole-cell lysates were isolated from Mahlavu cells. Equal amounts of proteins (40 μg/lane) were electrophoresed in 10% sodium dodecyl sulfatepolyacrylamide gel. The transferred membrane was blocked with 5% defatted milk and immunoblotted with primary antibodies against various proteins, including ERK (total form), p-ERK, p-AKT, E-cadherin, N-cadherin, Snail1, Twist, Vimentin, MLC II (total form), p-MLC II, ROCK, and GAPDH at room temperature for 3 hours. The antigen-antibody complexes were visualized with by chemiluminescence with the Amersham ECL detection system (GE Healthcare, Piscataway, N.J.).

Hep3B cells [4] = assay: Wound healing assay, Hep3B cells; assay type: cell-based, Human; conditions: 24 hours, FIG. 2D
Method: (§3) Human HCC cancer cell lines (including Mahlavu, Hep3B, and Huh7) were cultured in Dulbecco's modified Eagle medium (DMEM), supplemented with 10% (v/v) fetal bovine serum and antibiotics (100 units/mL penicillin, 100 μg/mL streptomycin, and 2.5 μg/mL amphotericin B). All cell lines have been periodically authenticated by short tandem repeat analysis at Bioresource Collection and Research Center, Hsinchu, Taiwan (R.O.C.) and tested for being mycoplasma free. Trilostane was purchased from LKT Laboratories, St. Paul, Minn. Mahlavu and Hep3B cells (2×10^5 cells/well) were seeded into 6-well plates and grown to confluence overnight. A wound was made by scraping with a sterilized 200-μL pipette tip in the middle of the cell monolayer, and the cells were allowed to migrate to the denuded area for 24 hours. The percentage of wound closure was measured using Olympus IX71 light microscope (Olympus, Tokyo, Japan).

Mahlavu cells [5] = assay: Wound healing assay, Mahlavu cells; assay type: cell-based, Human; conditions: 24 hours, FIG. 2C
Method: as §3

Mahlavu cells [6] = assay: In vivo xenograft model of HCC; conditions: Mahlavu xenograft in BALB/c nude mice, 30 or 60 mg/kg intraperitoneally every day for 18 days; FIG. 4
Method: All animal experiments were approved by the Institutional Animal Care and Use Committee of MacKay Memorial Hospital (Taiwan, R.O.C.). 6-week-old male BALB/c nude mice were injected subcutaneously with 1.0×10^7 Mahlavu cells into the bilateral back pad. When the tumor growth reached 50 mm^3, mice were randomly divided into three groups (n=5 mice each group): (1) low-dose group, in which 30 mg/kg of trilostane was intraperitoneally administered to the mouse every day for 18 days; (2) high-dose group, in which 60 mg/kg of trilostane was intraperitoneally administered to the mouse every day for 18 days; and (3) control group, in which vehicle control (Dimethyl sulfoxide, DMSO) of the same volume was intraperitoneally administered to the mouse every day for 18 days. The tumor volume was measured twice a week by the same investigator, and mice were sacrificed when tumors reached 10% of body weight.

[7] = tested on: phosphorylated ERK (p-ERK); assay: Western blot analysis of p-ERK in Mahlavu cells; assay type: cell-based, Human; conditions: Mahlavu cells after trilostane treatment, FIG. 3
Method: as §2

SMILES: C[C@]12CC[C@H]3[C@@H](CC[C@@]45O[C@@H]4C(O)=C(C#N)C[C@]35C)[C@@H]1CC[C@@H]2O [trilostane]
- colony numbers (Hep3B cells [1]): decreased colony numbers
- colony numbers (Mahlavu cells [2]): decreased colony numbers
- cell migration (mahlave cells): inhibitory effect
- expression of phosphorylated MEKK1 (p-MEKK1) [3]: down-regulated
- wound closure (Hep3B cells [4]): significantly inhibited the wound closure
- wound closure (Mahlavu cells [5]): significantly inhibited the wound closure
- tumor growth rate (Mahlavu cells [6]): significantly suppressed
- expression of phosphorylated ERK (p-ERK) [7]: down-regulated
